Laboratory results from ChEMBL document CHEMBL3593201, “Isolation, Characterization, and Synthesis of the Barrettides: Disulfide-Containing Peptides from the Marine Sponge Geodia barretti” (J Nat Prod, 2015).
≈ marks a conversion by molar mass, not a printed value. Calls of active or inactive are those of the source. The rule behind the calls is not given here. Peptide text beside a SMILES is read from it.

How the values were obtained:
Amphibalanus improvisus [1] = experiment: Anti-fouling activity against Balanus improvisus barnacle larvae assessed as settlement propensity at 6 uM incubated for 4 days (reference value: 64 +/- 8%); type: functional
Escherichia coli [2] = experiment: Antimicrobial activity against Escherichia coli ATCC 25922 up to 80 uM; type: functional, organism-based
Amphibalanus improvisus [3] = experiment: Anti-fouling activity against Balanus improvisus barnacle larvae assessed as inhibition of settlement propensity at 0.6 uM incubated for 4 days; type: functional, organism-based
Amphibalanus improvisus [4] = experiment: Anti-fouling activity against Balanus improvisus barnacle larvae assessed as inhibition of settlement propensity at 6 uM incubated for 4 days; type: functional, organism-based
Amphibalanus improvisus [5] = experiment: Toxicity against Balanus improvisus barnacle larvae assessed as number of dead larvae at 0.06 to 6 uM incubated for 24 hrs; type: organism-based; details: in vivo
Staphylococcus aureus [6] = experiment: Antimicrobial activity against Staphylococcus aureus ATCC 29213 up to 80 uM; type: functional, organism-based
Escherichia coli [7] = experiment: Antimicrobial activity against Escherichia coli ATCC 25922; type: functional
Staphylococcus aureus [8] = experiment: Antimicrobial activity against Staphylococcus aureus ATCC 29213; type: functional

## [H][C@@]12CCCN1C(=O)[C@H](C(C)C)NC(=O)[C@]1([H])CSSC[C@]([H])(NC(=O)[C@H](Cc3ccccc3)NC(=O)[C@@H](NC(=O)[C@@H]3CCCN3C(=O)[C@H](CO)NC(=O)[C@@H](NC(=O)[C@@H](N)CC(=O)O)C(C)C)CSSC[C@@H](C(=O)N[C@@H](CC(=O)O)C(=O)N[C@@H](C)C(=O)N[C@@H](CO)C(=O)N[C@@H](CCCNC(=N)N)C(=O)NCC(=O)N[C@H](C(=O)N[C@@H](CC(N)=O)C(=O)N3CCC[C@H]3C(=O)O)[C@@H](C)O)NC(=O)[C@H](CC(N)=O)NC(=O)[C@H](CC(=O)O)NC2=O)C(=O)N[C@@H](C(C)C)C(=O)N[C@@H](CCC(=O)O)C(=O)N[C@@H](CC(=O)O)C(=O)N[C@@H](CCC(=O)O)C(=O)N[C@@]([H])([C@@H](C)O)C(=O)N[C@@H](CO)C(=O)NCC(=O)N[C@@H](C)C(=O)N[C@@H](CCCCN)C(=O)N[C@@]([H])([C@@H](C)O)C(=O)N1 (HELM PEPTIDE1{D.V.S.P.C.F.C.V.E.D.E.T.S.G.A.K.T.C.V.P.D.N.C.D.A.S.R.G.T.N.P}$PEPTIDE1,PEPTIDE1,5:R3-23:R3|PEPTIDE1,PEPTIDE1,7:R3-18:R3$$$V2.0)
Amphibalanus improvisus [1]
  Activity: 15%
Escherichia coli [2]
  Activity: inactive
Amphibalanus improvisus [3]
  inhibition: Active
Amphibalanus improvisus [4]
  inhibition: Active
Amphibalanus improvisus [5]
  Activity: Non-toxic
Staphylococcus aureus [6]
  Activity: inactive

## CC[C@H](C)[C@H](NC(=O)[C@H](CCCCN)NC(=O)[C@H](CCC(=O)O)NC(=O)[C@H](CCCCN)NC(=O)[C@H](CO)NC(=O)[C@H](CCCCN)NC(=O)[C@H](CCCNC(=N)N)NC(=O)[C@H](Cc1ccccc1)NC(=O)[C@H](Cc1ccccc1)NC(=O)[C@H](CC(=O)O)NC(=O)CNC(=O)[C@H](CC(C)C)NC(=O)[C@@H](N)CC(C)C)C(=O)NCC(=O)N[C@@H](CCCCN)C(=O)N[C@@H](CCC(=O)O)C(=O)N[C@@H](Cc1ccccc1)C(=O)N[C@@H](CCCCN)C(=O)N[C@@H](CCCNC(=N)N)C(=O)N[C@H](C(=O)N[C@H](C(=O)N[C@@H](CCC(N)=O)C(=O)N[C@@H](CCCNC(=N)N)C(=O)N[C@H](C(=O)N[C@@H](CCCCN)C(=O)N[C@@H](CC(=O)O)C(=O)N[C@@H](Cc1ccccc1)C(=O)N[C@@H](CC(C)C)C(=O)N[C@@H](CCCNC(=N)N)C(=O)N[C@@H](CC(N)=O)C(=O)N[C@@H](CC(C)C)C(=O)N[C@H](C(=O)N1CCC[C@H]1C(=O)N[C@@H](CCCNC(=N)N)C(=O)N[C@H](C(=O)N[C@@H](CCC(=O)O)C(=O)N[C@@H](CO)C(=O)O)[C@@H](C)O)C(C)C)[C@@H](C)CC)C(C)C)[C@@H](C)CC [CATHELICIDIN]
Escherichia coli [7]
  MIC: 1 µM (≈ 4.49 µg/mL)
Staphylococcus aureus [8]
  MIC: 1 µM (≈ 4.49 µg/mL)

## [H][C@@]12CCCN1C(=O)[C@H](CC(C)C)NC(=O)[C@]1([H])CSSC[C@]([H])(NC(=O)[C@H](Cc3ccccc3)NC(=O)[C@@H](NC(=O)[C@@H]3CCCN3C(=O)[C@H](CO)NC(=O)[C@@H](NC(=O)[C@@H](N)CC(=O)O)C(C)C)CSSC[C@@H](C(=O)N[C@@H](CC(=O)O)C(=O)N[C@@H](C)C(=O)N[C@@H](CO)C(=O)N[C@@H](CCCNC(=N)N)C(=O)NCC(=O)N[C@H](C(=O)N[C@@H](CC(N)=O)C(=O)N3CCC[C@H]3C(=O)O)[C@@H](C)O)NC(=O)[C@H](CC(N)=O)NC(=O)[C@H](CC(=O)O)NC2=O)C(=O)N[C@@H](C(C)C)C(=O)N[C@@H](CCC(=O)O)C(=O)N[C@@H](CC(=O)O)C(=O)N[C@@H](CCC(=O)O)C(=O)N[C@@]([H])([C@@H](C)O)C(=O)N[C@@H](CO)C(=O)NCC(=O)N[C@@H](C)C(=O)N[C@@H](CCCCN)C(=O)N[C@@]([H])([C@@H](C)O)C(=O)N1 (HELM PEPTIDE1{D.V.S.P.C.F.C.V.E.D.E.T.S.G.A.K.T.C.L.P.D.N.C.D.A.S.R.G.T.N.P}$PEPTIDE1,PEPTIDE1,5:R3-23:R3|PEPTIDE1,PEPTIDE1,7:R3-18:R3$$$V2.0)
Amphibalanus improvisus [1]
  Activity: 8%
Escherichia coli [2]
  Activity: inactive
Amphibalanus improvisus [4]
  inhibition: Active
Amphibalanus improvisus [5]
  Activity: Non-toxic
Staphylococcus aureus [6]
  Activity: inactive
